Laboratory results from US20230019236A1, “PROTEIN TYROSINE PHOSPHATASE INHIBITORS AND METHODS OF USE THEREOF” (Calico Life Sciences LLC, priority 2019, published 2023).

biological target: T1, His tagged full-length PTP1B protein (Homo sapiens, UniProt P18031); assay: Mobility Shift Assay (MSA) used to determine potency of PTP1B inhibitors; type: biochemical; details: Table 2
T1 construct: made in house
T1 sequence (P18031 with tags, fused parts or gaps): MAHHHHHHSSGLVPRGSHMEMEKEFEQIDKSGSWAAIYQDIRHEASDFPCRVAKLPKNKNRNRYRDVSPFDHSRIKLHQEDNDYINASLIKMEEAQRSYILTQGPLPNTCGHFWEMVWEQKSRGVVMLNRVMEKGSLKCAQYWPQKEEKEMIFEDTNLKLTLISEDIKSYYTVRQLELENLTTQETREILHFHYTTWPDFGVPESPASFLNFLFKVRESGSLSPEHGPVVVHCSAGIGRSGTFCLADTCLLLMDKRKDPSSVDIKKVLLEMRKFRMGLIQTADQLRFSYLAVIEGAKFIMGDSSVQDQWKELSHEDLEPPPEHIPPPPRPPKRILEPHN
Protocol: The enzymatic assay used to determine activity is a mobility shift assay using a LabChip EZ Reader by Caliper Life Sciences. The enzymatic reaction was carried out in assay buffer (50 mM HEPES pH 7.5, 1 mM EGTA, 10 mM EDTA, 0.01% Tween® 20, and 2 mM DTT). […] The enzyme (at 0.5 nM) was incubated with compound for 10 minutes at room temperature. […] The % inhibition was then used to calculate the IC50 values.

Compound	IC50
O=C1CN(c2c(O)cc3ccc(NCCC(F)(F)F)cc3c2F)S(=O)(=O)N1 [Compound 169, 5-{1-fluoro-3-hydroxy-7-[(3,3,3-trifluoropropyl)amino]naphthalen-2-yl}-1λ^6,2,5-thiadiazolidine-1,1,3-trione]	10 to 100 nM
O=C(CNc1ccc2cc(O)c(N3CC(=O)NS3(=O)=O)c(F)c2c1)NCCC1CC1 [Compound 268, N-(2-cyclopropylethyl)-2-{[8-fluoro-6-hydroxy-7-(1,1,4-trioxo-1λ^6,2,5-thiadiazolidin-2-yl)naphthalen-2-yl]amino}acetamide]	10 to 100 nM
O=C1CN(c2c(O)cc3ccc(C4=CCN(S(=O)(=O)C5CCC5)C4)cc3c2F)S(=O)(=O)N1 [Compound 316, 5-{7-[1-(cyclobutanesulfonyl)-2,5-dihydro-1H-pyrrol-3-yl]-1-fluoro-3-hydroxynaphthalen-2-yl}-1λ^6,2,5-thiadiazolidine-1,1,3-trione]	< 1 nM
O=C1CN(c2c(O)cc3ccc(OCCOC4CCC4)cc3c2F)S(=O)(=O)N1 [Compound 214, 5-{7-[2-(cyclobutyloxy)ethoxy]-1-fluoro-3-hydroxynaphthalen-2-yl}-1λ^6,2,5-thiadiazolidine-1,1,3-trione]	1 to 10 nM
CS(=O)(=O)N1CC[C@@H](Nc2ccc3cc(O)c(N4CC(=O)NS4(=O)=O)c(F)c3c2)C1 [Compound 304, 5-(1-fluoro-3-hydroxy-7-{[(3R)-1-(methanesulfonyl)pyrrolidin-3-yl]amino}naphthalen-2-yl)-1λ^6,2,5-thiadiazolidine-1,1,3-trione]	10 to 100 nM
CC(C)CCNc1ccc2c(F)c(O)c(N3CC(=O)NS3(=O)=O)c(F)c2c1 [Compound 148, 5-{1,4-difluoro-3-hydroxy-7-[(3-methylbutyl)amino]naphthalen-2-yl}-1λ^6,2,5-thiadiazolidine-1,1,3-trione]	> 100 nM
O=C1CN(c2c(O)cc3ccc(NCCCC(F)(F)F)cc3c2F)S(=O)(=O)N1 [Compound 166, 5-{1-fluoro-3-hydroxy-7-[(4,4,4-trifluorobutyl)amino]naphthalen-2-yl}-1λ^6,2,5-thiadiazolidine-1,1,3-trione]	> 100 nM
O=C1CN(c2c(O)cc3ccc(C4CCS(=O)(=O)CC4)cc3c2F)S(=O)(=O)N1 [Compound 248, 5-[7-(1,1-dioxo-1λ^6-thian-4-yl)-1-fluoro-3-hydroxynaphthalen-2-yl]-1λ^6,2,5-thiadiazolidine-1,1,3-trione]	> 100 nM
CC(C)CCOc1ccc2cc(O)c(N3CC(=O)NS3(=O)=O)c(F)c2c1 [Compound 204, 5-[1-fluoro-3-hydroxy-7-(3-methylbutoxy)naphthalen-2-yl]-1λ^6,2,5-thiadiazolidine-1,1,3-trione]	< 1 nM
CC(C)OCCNc1ccc2cc(O)c(N3CC(=O)NS3(=O)=O)c(F)c2c1 [Compound 172, 5-[1-fluoro-3-hydroxy-7-({2-[(propan-2-yl)oxy]ethyl}amino)naphthalen-2-yl]-1λ^6,2,5-thiadiazolidine-1,1,3-trione]	> 100 nM
CS(=O)(=O)N1CCC(Oc2ccc3cc(O)c(N4CC(=O)NS4(=O)=O)c(F)c3c2)CC1 [Compound 284, 5-(1-fluoro-3-hydroxy-7-{[1-(methanesulfonyl)piperidin-4-yl]oxy}naphthalen-2-yl)-1λ^6,2,5-thiadiazolidine-1,1,3-trione]	1 to 10 nM
CC(C)(CN)CCOc1ccc2cc(O)c(N3CC(=O)NS3(=O)=O)c(F)c2c1 [Compound 176, 5-[7-(4-amino-3,3-dimethylbutoxy)-1-fluoro-3-hydroxynaphthalen-2-yl]-1λ^6,2,5-thiadiazolidine-1,1,3-trione]	1 to 10 nM
COc1ccc2cc(O)c(N3CC(=O)NS3(=O)=O)c(F)c2c1F [Compound 205, 5-(1,8-difluoro-3-hydroxy-7-methoxynaphthalen-2-yl)-1λ^6,2,5-thiadiazolidine-1,1,3-trione]	10 to 100 nM
COC(C)(C)CCOc1ccc2cc(O)c(N3CC(=O)NS3(=O)=O)c(F)c2c1 [Compound 170, 5-[1-fluoro-3-hydroxy-7-(3-methoxy-3-methylbutoxy)naphthalen-2-yl]-1λ^6,2,5-thiadiazolidine-1,1,3-trione]	1 to 10 nM
C=C(c1ccc2cc(O)c(N3CC(=O)NS3(=O)=O)c(F)c2c1)c1c(C)c(C)c(C)c(C)c1C [Compound 241, 5-{1-fluoro-3-hydroxy-7-[1-(pentamethylphenyl)ethenyl]naphthalen-2-yl}-1λ^6,2,5-thiadiazolidine-1,1,3-trione]	> 100 nM
N#CCCCNc1ccc2cc(O)c(N3CC(=O)NS3(=O)=O)c(F)c2c1 [Compound 174, 4-{[8-fluoro-6-hydroxy-7-(1,1,4-trioxo-1λ^6,2,5-thiadiazolidin-2-yl)naphthalen-2-yl]amino}butanenitrile]	> 100 nM
CNCC(C)(C)CCOc1ccc2cc(O)c(N3CC(=O)NS3(=O)=O)c(F)c2c1 [Compound 163, 5-{7-[3,3-dimethyl-4-(methylamino)butoxy]-1-fluoro-3-hydroxynaphthalen-2-yl}-1λ^6,2,5-thiadiazolidine-1,1,3-trione]	> 100 nM

Further lines, results first:

IC50	Compound
10 to 100 nM	O=C1CN(c2c(O)cc3ccc(C4=CCOCC4)cc3c2F)S(=O)(=O)N1 [Compound 264, 5-[7-(3,6-dihydro-2H-pyran-4-yl)-1-fluoro-3-hydroxynaphthalen-2-yl]-1λ^6,2,5-thiadiazolidine-1,1,3-trione]
1 to 10 nM	[2H]C1([2H])C(=O)NS(=O)(=O)N1c1c(O)cc2ccc(OC)cc2c1F [Compound 123, 5-(1-fluoro-3-hydroxy-7-methoxynaphthalen-2-yl)(4,4-^2H2)-1λ^6,2,5-thiadiazolidine-1,1,3-trione]
1 to 10 nM	CC(C)(CC#N)CCOc1ccc2cc(O)c(N3CC(=O)NS3(=O)=O)c(F)c2c1 [Compound 115, 5-{[8-fluoro-6-hydroxy-7-(1,1,4-trioxo-1λ^6,2,5-thiadiazolidin-2-yl)naphthalen-2-yl]oxy}-3,3-dimethylpentanenitrile]
< 1 nM	CC(C)(C#N)CCOc1ccc2cc(O)c(N3CC(=O)NS3(=O)=O)c(F)c2c1 [Compound 120, 4-{[8-fluoro-6-hydroxy-7-(1,1,4-trioxo-1λ^6,2,5-thiadiazolidin-2-yl)naphthalen-2-yl]oxy}-2,2-dimethylbutanenitrile]
1 to 10 nM	COCCOc1ccc2cc(O)c(N3CC(=O)NS3(=O)=O)c(F)c2c1 [Compound 119, 5-[1-fluoro-3-hydroxy-7-(2-methoxyethoxy)naphthalen-2-yl]-1λ^6,2,5-thiadiazolidine-1,1,3-trione]
> 100 nM	COc1ccc(-c2ccc3cc(O)c(N4CC(=O)NS4(=O)=O)c(F)c3c2)s1 [Compound 227, 5-[1-fluoro-3-hydroxy-7-(5-methoxythiophen-2-yl)naphthalen-2-yl]-1λ^6,2,5-thiadiazolidine-1,1,3-trione]
< 1 nM	O=C1CN(c2c(O)cc3ccc(OCCC4CC4)cc3c2F)S(=O)(=O)N1 [Compound 211, 5-[7-(2-cyclopropylethoxy)-1-fluoro-3-hydroxynaphthalen-2-yl]-1λ^6,2,5-thiadiazolidine-1,1,3-trione]
1 to 10 nM	CP(C)(=O)c1ccc(-c2ccc3cc(O)c(N4CC(=O)NS4(=O)=O)c(F)c3c2)s1 [Compound 141, 5-{7-[5-(dimethylphosphoryl)thiophen-2-yl]-1-fluoro-3-hydroxynaphthalen-2-yl}-1λ^6,2,5-thiadiazolidine-1,1,3-trione]
< 1 nM	CC(C)S(=O)(=O)N1CC=C(c2ccc3cc(O)c(N4CC(=O)NS4(=O)=O)c(F)c3c2)C1 [Compound 296, 5-{1-fluoro-3-hydroxy-7-[1-(propane-2-sulfonyl)-2,5-dihydro-1H-pyrrol-3-yl]naphthalen-2-yl}-1λ^6,2,5-thiadiazolidine-1,1,3-trione]
10 to 100 nM	CNCCCc1ccc2cc(O)c(N3CC(=O)NS3(=O)=O)c(F)c2c1 [Compound 139, 5-{1-fluoro-3-hydroxy-7-[3-(methylamino)propyl]naphthalen-2-yl}-1λ^6,2,5-thiadiazolidine-1,1,3-trione]
1 to 10 nM	O=C1CN(c2c(O)cc3ccc(C4=CCN(CC5CC5)C4)cc3c2F)S(=O)(=O)N1 [Compound 242, 5-{7-[1-(cyclopropylmethyl)-2,5-dihydro-1H-pyrrol-3-yl]-1-fluoro-3-hydroxynaphthalen-2-yl}-1λ^6,2,5-thiadiazolidine-1,1,3-trione]
10 to 100 nM	CC(C)NCCOc1ccc2cc(O)c(N3CC(=O)NS3(=O)=O)c(F)c2c1 [Compound 145, 5-(1-fluoro-3-hydroxy-7-{2-[(propan-2-yl)amino]ethoxy}naphthalen-2-yl)-1λ^6,2,5-thiadiazolidine-1,1,3-trione]
1 to 10 nM	Cc1nn(C)cc1S(=O)(=O)N1CC=C(c2ccc3cc(O)c(N4CC(=O)NS4(=O)=O)c(F)c3c2)C1 [Compound 310, 5-{7-[1-(1,3-dimethyl-1H-pyrazole-4-sulfonyl)-2,5-dihydro-1H-pyrrol-3-yl]-1-fluoro-3-hydroxynaphthalen-2-yl}-1λ^6,2,5-thiadiazolidine-1,1,3-trione]
< 1 nM	CC(C)CCNc1ccc2cc(O)c(N3CC(=O)NS3(=O)=O)c(F)c2c1 [Compound 200, 5-{1-fluoro-3-hydroxy-7-[(3-methylbutyl)amino]naphthalen-2-yl}-1λ^6,2,5-thiadiazolidine-1,1,3-trione]
1 to 10 nM	CC(C)CNc1ccc2cc(O)c(N3CC(=O)NS3(=O)=O)c(F)c2c1 [Compound 201, 5-{1-fluoro-3-hydroxy-7-[(2-methylpropyl)amino]naphthalen-2-yl}-1λ^6,2,5-thiadiazolidine-1,1,3-trione]
